Experimental data from patent publication US20050197364A1, “Amide compounds as ion channel ligands and uses thereof” (priority 2003, published 2005).

Tested on: VR1 receptor
Test: High throughput calcium imaging assay (Fura2, Flex Station) of VR1 antagonists, pH 5.1 stimulus
Format: cell-based
Conditions: 1 uM compound; inhibition of calcium ion influx induced by capsaicin stimulation

SMILES: CC(C)(CO)NC(=O)c1ccc(-c2ncccc2Cl)cc1 [Compound 41]
- % Inhibition @ 1 uM: + (compound exhibited 0-25% inhibition of calcium ion influx induced by capsaicin stimulation)

SMILES: O=C(O)c1cccc(NC(=O)c2ccc(-c3ncccc3Cl)c(F)c2)c1 [Compound 165]
- % Inhibition @ 1 uM: + (compound exhibited 0-25% inhibition of calcium ion influx induced by capsaicin stimulation)

SMILES: Cc1cc(NC(=O)c2ccc(-c3ncccc3Cl)cc2)nc(C)n1 [Compound 35]
- % Inhibition @ 1 uM: + (compound exhibited 0-25% inhibition of calcium ion influx induced by capsaicin stimulation)

SMILES: CC(C)c1cccc(NC(=O)c2ccc(-c3ncccc3Cl)cc2F)c1 [Compound 69]
- % Inhibition @ 1 uM: + (compound exhibited 0-25% inhibition of calcium ion influx induced by capsaicin stimulation)

SMILES: O=C(Nc1ccc(N2CCNCC2)c(Cl)c1)c1ccc(-c2ncccc2Cl)c(F)c1 [Compound 183]
- % Inhibition @ 1 uM: + + + + (compound exhibited 75% or greater inhibition of calcium ion influx induced by capsaicin stimulation)

SMILES: COc1cccc(NC(=O)c2ccc(-c3ncccc3Cl)c(OC)c2)c1 [Compound 196]
- % Inhibition @ 1 uM: + + (compound exhibited 25-50% inhibition of calcium ion influx induced by capsaicin stimulation)

SMILES: COc1cc(C(=O)Nc2ccc(F)cc2[N+](=O)[O-])ccc1-c1ncccc1Cl [Compound 210]
- % Inhibition @ 1 uM: + + + + (“+ + + +” compound exhibited 75% or greater inhibition of calcium ion influx induced by capsaicin stimulation.)

SMILES: CC(C)c1ccc(NC(=O)c2ccc(-c3ncccc3Cl)cc2)cc1 [Compound 25]
- % Inhibition @ 1 uM: + + + + (compound exhibited 75% or greater inhibition of calcium ion influx induced by capsaicin stimulation)

SMILES: O=C(Nc1ccc(F)c(F)c1)c1ccc(-c2ncccc2Cl)cc1 [Compound 279]
- % Inhibition @ 1 uM: + (“+” compound exhibited 0-25% inhibition of calcium ion influx induced by capsaicin stimulation.)

SMILES: COc1cc(C(=O)Nc2ccc(C#N)c(Cl)c2)ccc1-c1ncccc1Cl [Compound 248]
- % Inhibition @ 1 uM: + + + + (“+ + + +” compound exhibited 75% or greater inhibition of calcium ion influx induced by capsaicin stimulation.)

SMILES: COc1cc(NC(=O)c2ccc(-c3ncccc3Cl)cn2)cc(OC)c1OC [Compound 339]
- % Inhibition @ 1 uM: + (“+” compound exhibited 0-25% inhibition of calcium ion influx induced by capsaicin stimulation.)

SMILES: O=C(Nc1ccc(C(F)(F)F)cc1)c1ccc(-c2ncccc2Cl)c(F)c1 [Compound 135]
- % Inhibition @ 1 uM: + + (compound exhibited 25-50% inhibition of calcium ion influx induced by capsaicin stimulation)

SMILES: COc1ccccc1NC(=O)c1ccc(-c2ncccc2Cl)cc1 [Compound 13]
- % Inhibition @ 1 uM: + + + + (compound exhibited 75% or greater inhibition of calcium ion influx induced by capsaicin stimulation)

SMILES: O=C(Nc1ccc(N2CCNCC2)cc1)c1ccc(-c2ncccc2Cl)cc1 [Compound 45]
- % Inhibition @ 1 uM: + (compound exhibited 0-25% inhibition of calcium ion influx induced by capsaicin stimulation)

SMILES: O=C(Nc1ccc(OCc2ccccc2)cc1)c1ccc(-c2ncccc2Cl)cn1 [Compound 332]
- % Inhibition @ 1 uM: + (“+” compound exhibited 0-25% inhibition of calcium ion influx induced by capsaicin stimulation.)

SMILES: COc1cc(C(=O)Nc2ccc(Br)cn2)ccc1-c1ncccc1Cl [Compound 226]
- % Inhibition @ 1 uM: + (“+” compound exhibited 0-25% inhibition of calcium ion influx induced by capsaicin stimulation.)

SMILES: CCC(C)(C)NC(=O)c1ccc(-c2ncccc2Cl)cc1 [Compound 53]
- % Inhibition @ 1 uM: + (compound exhibited 0-25% inhibition of calcium ion influx induced by capsaicin stimulation)

SMILES: Cc1cc(C)nc(NC(=O)c2ccc(-c3ncccc3Cl)cc2)c1 [Compound 37]
- % Inhibition @ 1 uM: + (compound exhibited 0-25% inhibition of calcium ion influx induced by capsaicin stimulation)

SMILES: CCCOc1ccc(NC(=O)c2ccc(-c3ncccc3Cl)cn2)cc1 [Compound 341]
- % Inhibition @ 1 uM: + (“+” compound exhibited 0-25% inhibition of calcium ion influx induced by capsaicin stimulation.)

SMILES: COc1cc(C(=O)Nc2cccnc2)ccc1-c1ncccc1Cl [Compound 219]
- % Inhibition @ 1 uM: + (“+” compound exhibited 0-25% inhibition of calcium ion influx induced by capsaicin stimulation.)

SMILES: O=C(Nc1cccc(Cl)c1)c1ccc(-c2ncccc2Cl)c(F)c1 [Compound 116]
- % Inhibition @ 1 uM: + (compound exhibited 0-25% inhibition of calcium ion influx induced by capsaicin stimulation)

SMILES: COc1cc(C(=O)Nc2ccc(Cl)cc2S(=O)(=O)O)ccc1-c1ncccc1Cl [Compound 261]
- % Inhibition @ 1 uM: + (“+” compound exhibited 0-25% inhibition of calcium ion influx induced by capsaicin stimulation.)

SMILES: COc1cc(C(=O)Nc2ccncn2)ccc1-c1ncccc1Cl [Compound 225]
- % Inhibition @ 1 uM: + + (“+ +” compound exhibited 25-50% inhibition of calcium ion influx induced by capsaicin stimulation.)

SMILES: O=C(Nc1cccc(OC(F)(F)F)c1)c1ccc(-c2ncccc2Cl)cc1 [Compound 277]
- % Inhibition @ 1 uM: + (“+” compound exhibited 0-25% inhibition of calcium ion influx induced by capsaicin stimulation.)

SMILES: CCCc1ccccc1NC(=O)c1ccc(-c2ncccc2Cl)c(OC)c1 [Compound 195]
- % Inhibition @ 1 uM: + + (compound exhibited 25-50% inhibition of calcium ion influx induced by capsaicin stimulation)

SMILES: O=C(Nc1ccc2c(c1)OCO2)c1ccc(-c2ncccc2Cl)cc1 [Compound 34]
- % Inhibition @ 1 uM: + (compound exhibited 0-25% inhibition of calcium ion influx induced by capsaicin stimulation)

SMILES: COc1ccc(NC(=O)c2ccc(-c3ncccc3Cl)c(OC)c2)cc1 [Compound 190]
- % Inhibition @ 1 uM: + (compound exhibited 0-25% inhibition of calcium ion influx induced by capsaicin stimulation)

SMILES: O=C(Nc1cccc(Cl)c1Cl)c1ccc(-c2ncccc2Cl)c(F)c1 [Compound 122]
- % Inhibition @ 1 uM: + + + + (compound exhibited 75% or greater inhibition of calcium ion influx induced by capsaicin stimulation)

SMILES: CCCCc1ccc(NC(=O)c2ccc(-c3ncccc3Cl)c(OC)c2)cc1 [Compound 204]
- % Inhibition @ 1 uM: + + (“+ +” compound exhibited 25-50% inhibition of calcium ion influx induced by capsaicin stimulation.)

SMILES: O=C(Nc1ccc(C2CCCCC2)cc1)c1ccc(-c2ncccc2Cl)cn1 [Compound 303]
- % Inhibition @ 1 uM: + + + + (“+ + + +” compound exhibited 75% or greater inhibition of calcium ion influx induced by capsaicin stimulation.)

SMILES: COc1cccc(NC(=O)c2ccc(-c3ncccc3Cl)cc2F)c1 [Compound 74]
- % Inhibition @ 1 uM: + (compound exhibited 0-25% inhibition of calcium ion influx induced by capsaicin stimulation)

SMILES: CCn1c2ccccc2c2cc(NC(=O)c3ccc(-c4ncccc4Cl)c(OC)c3)ccc21 [Compound 234]
- % Inhibition @ 1 uM: + (“+” compound exhibited 0-25% inhibition of calcium ion influx induced by capsaicin stimulation.)

SMILES: COc1cc(C(=O)Nc2ccccc2)ccc1-c1ncccc1Cl [Compound 189]
- % Inhibition @ 1 uM: + (compound exhibited 0-25% inhibition of calcium ion influx induced by capsaicin stimulation)

SMILES: O=C(Nc1ccc(C(F)(F)F)cn1)c1ccc(-c2ncccc2Cl)cc1F [Compound 97]
- % Inhibition @ 1 uM: + (compound exhibited 0-25% inhibition of calcium ion influx induced by capsaicin stimulation)

SMILES: COc1ccc(NC(=O)c2ccc(-c3ncccc3Cl)cc2)cc1O [Compound 271]
- % Inhibition @ 1 uM: + (“+” compound exhibited 0-25% inhibition of calcium ion influx induced by capsaicin stimulation.)

SMILES: O=C(Nc1ccc(C(F)(F)F)cn1)c1ccc(-c2ncccc2Cl)cc1 [Compound 50]
- % Inhibition @ 1 uM: + + (compound exhibited 25-50% inhibition of calcium ion influx induced by capsaicin stimulation)

SMILES: CN(C)c1cccc(NC(=O)c2ccc(-c3ncccc3Cl)cc2)c1 [Compound 43]
- % Inhibition @ 1 uM: + + + + (compound exhibited 75% or greater inhibition of calcium ion influx induced by capsaicin stimulation)

SMILES: O=C(Nc1ccccc1Cl)c1ccc(-c2ncccc2Cl)cc1 [Compound 15]
- % Inhibition @ 1 uM: + (compound exhibited 0-25% inhibition of calcium ion influx induced by capsaicin stimulation)

SMILES: COc1ccc(NC(=O)c2ccc(-c3ncccc3Cl)c(F)c2)cn1 [Compound 153]
- % Inhibition @ 1 uM: + + (compound exhibited 25-50% inhibition of calcium ion influx induced by capsaicin stimulation)

SMILES: O=C(Nc1cc[nH]n1)c1ccc(-c2ncccc2Cl)c(F)c1 [Compound 158]
- % Inhibition @ 1 uM: + (compound exhibited 0-25% inhibition of calcium ion influx induced by capsaicin stimulation)

SMILES: COc1ccc(NC(=O)c2ccc(-c3ncccc3Cl)cc2F)cn1 [Compound 103]
- % Inhibition @ 1 uM: + (compound exhibited 0-25% inhibition of calcium ion influx induced by capsaicin stimulation)

SMILES: COc1cc(C(=O)Nc2ccc(F)c(F)c2)ccc1-c1ncccc1Cl [Compound 254]
- % Inhibition @ 1 uM: + + + (“+ + +” compound exhibited 50-75% inhibition of calcium ion influx induced by capsaicin stimulation.)

SMILES: COc1cc(C(=O)Nc2cccc(C(=O)O)c2)ccc1-c1ncccc1Cl [Compound 241]
- % Inhibition @ 1 uM: + (“+” compound exhibited 0-25% inhibition of calcium ion influx induced by capsaicin stimulation.)

SMILES: Cc1cccnc1NC(=O)c1ccc(-c2ncccc2Cl)cc1 [Compound 48]
- % Inhibition @ 1 uM: + + (compound exhibited 25-50% inhibition of calcium ion influx induced by capsaicin stimulation)

SMILES: Cc1cc(C)nc(NC(=O)c2ccc(-c3ncccc3Cl)cn2)c1 [Compound 312]
- % Inhibition @ 1 uM: + (“+” compound exhibited 0-25% inhibition of calcium ion influx induced by capsaicin stimulation.)

SMILES: CC(C)(C)NC(=O)c1ccc(-c2ncccc2Cl)c(F)c1 [Compound 110]
- % Inhibition @ 1 uM: + (compound exhibited 0-25% inhibition of calcium ion influx induced by capsaicin stimulation)

SMILES: O=C(Nc1ccc2cn[nH]c2c1)c1ccc(-c2ncccc2Cl)c(F)c1 [Compound 172]
- % Inhibition @ 1 uM: + + + (compound exhibited 50-75% inhibition of calcium ion influx induced by capsaicin stimulation)

SMILES: CCC1c2ccccc2-c2cc(NC(=O)c3ccc(-c4ncccc4Cl)cc3)ccc21 (stereo not drawn) [Compound 55]
- % Inhibition @ 1 uM: + + (compound exhibited 25-50% inhibition of calcium ion influx induced by capsaicin stimulation)

SMILES: O=C(Nc1ccc(Cl)cc1Cl)c1ccc(-c2ncccc2Cl)cc1 [Compound 16]
- % Inhibition @ 1 uM: + (compound exhibited 0-25% inhibition of calcium ion influx induced by capsaicin stimulation)

SMILES: O=C(Nc1ccccc1Cl)c1ccc(-c2ncccc2Cl)cn1 [Compound 297]
- % Inhibition @ 1 uM: + + + + (“+ + + +” compound exhibited 75% or greater inhibition of calcium ion influx induced by capsaicin stimulation.)

SMILES: CCOc1ccc(NC(=O)c2ccc(-c3ncccc3Cl)cc2)cc1 [Compound 281]
- % Inhibition @ 1 uM: + (“+” compound exhibited 0-25% inhibition of calcium ion influx induced by capsaicin stimulation.)
